According to patent publication US7728043B2, “Methods for treatment of beta-amyloid protein-induced ocular disease” (priority 1999, dated 2010):

What was measured:
[1] = system: IMR32 cells; assay: MTT reduction assay, βA peptide-induced toxicity, IMR32 cells; type: cell-based, human
Procedure: (§1) The degree of βA insult was measured by 3-[4,5-dimethylthiazol-2-yl]-2,5-diphenyltetrazolium bromide (MTT) reduction assay. […] The detection of cell growth or cell death can be determined by observing the conversion of MTT to the colored product, MTT formazan, the concentration of which can be measured […] at 550 nm.
(§2) Cells were incubated in MTT solution (5 mg/ml) at 37° C. for 2 hours. During this time, cells were observed under a microscope every 15 min. Cells were incubated in Lysing buffer (100 μl) overnight at 37° C. Colorimetric determination of MTT reduction was made at 550 nm.
(§3) PC12 rat pheochromocytoma and IMR32 human neuroblastoma cells were obtained from the American Type Culture Collection (ATCC). HUVEC normal umbilical human vein endothelial cells were obtained from Clonetics (San Diego, Calif.). Cells were routinely cultured on a tissue culture plate (Corning, N.Y., N.Y.). PC12 cells were grown in high glucose Dulbecco's Modified Eagle Medium (DMEM), 10% horse serum, 5% fetal calf serum, and 1% penicillin/streptomycin. IMR32 cells were grown in 90% DMEM and 10% fetal calf serum with 1% penicillin/streptomycin. HUVEC cells were grown in EGM-2 Bullet Kit (Clonetics, San Diego, Calif.).

[2] = system: PC12 cells; assay: MTT reduction assay, βA peptide-induced toxicity, PC12 cells; type: cell-based, rat; settings: for Protection of PC12 cells from βA peptide insults (control study): even at 200 μg/ml, βA peptide(25-35) and βA peptide(1-42)
Procedure: as §1, §2, §3
PC12 cells were cultured routinely on polystyrene-coated Corning tissue culture plates. […] The 96-well plates were coated with rat tail collagen (Boehringer Mannheim) in order to promote uniform PC12 cell attachment and growth.

[3] = Antioxidant assay, scavenging of DPPH free radicals; settings: for Antioxidant activity (DPPH free radical scavenging), in words: optical density change of DPPH radicals at 515 nm
Procedure: Kim et al., Neurosci Lett 303, 57 (2001) and Barik et al., Free Radic Biol Med 39, 811 (2005).
Using an antioxidant assay, the antioxidant potency of the compounds of the invention was evaluated. 1,1-Diphenyl-2-picrylhydrazyl (DPPH) is known to generate stable free radicals in aqueous and ethanolic solutions. The ability of the compounds of the invention to scavenge these free radicals was measured by observing the optical density change of DPPH radicals at 515 nm. Kim et al., Neurosci Lett 303, 57 (2001) and Barik et al., Free Radic Biol Med 39, 811 (2005).
The samples were prepared in various concentrations (200, 20, 2.0, and 0.2 μg/ml) by serial dilution of a stock solution (5 mg/ml) and were tested by the following procedure. Reaction mixtures containing test compounds (dissolved in DMSO) and 300 μM DPPH ethanolic solution in 96-well microtiter plates were incubated at 37° C. for 30 min. and absorbance was measured at 515 nm. Percent inhibition by sample treatment was determined by comparison with a DMSO-treated […] control group. IC50 values were determined from percent inhibition by sample. IC50 values denote the concentration of the tested compound that was required to scavenge 50% of the DPPH free radicals.

[4] = system: cells treated with βA peptide; assay: Protection of cells from βA peptide insult, statements in words (MTT assay, cells not singled out); type: cell-based; settings: MTT reduction assay; PC12, IMR32, HUVEC cells where named in the sentence
Procedure: as §1, §2

[5] = system: HUVEC cells; assay: MTT reduction assay, βA peptide-induced toxicity, HUVEC cells; type: cell-based, human
Procedure: as §1, §2, §3

[6] = Table 3, ginger-derived natural product compounds
[7] = Table 2, synthesized curcuminoids

| Compound | Protection of cells from βA peptide-induced toxicity, in words [4] | Anti-βA peptide(1-42) ED50 IMR32 ([1]; Table 4, ginkgo compounds) | Anti-βA peptide(25-35) ED50 IMR32 ([1]; Table 4, ginkgo compounds) | Anti-βA peptide(1-42) ED50 PC12 ([2]; Table 4, ginkgo compounds) | Anti-βA peptide(25-35) ED50 PC12 ([2]; Table 4, ginkgo compounds) | Anti-βA peptide(1-42) ED50 HUVEC ([5]; Table 4, ginkgo compounds) | Anti-βA peptide(25-35) ED50 HUVEC ([5]; Table 4, ginkgo compounds) | also measured |
| --- | --- | --- | --- | --- | --- | --- | --- | --- |
| βA peptide (1-42): beta-amyloid peptide 1-42 used as the toxic insult [reference compound] |  |  |  |  |  |  |  | ED50 of βA peptide toxicity to IMR32 cells ([1]; peptide alone): 6.0 µg/mL; ED50 of βA peptide toxicity to PC12 cells ([2]; peptide alone, collagen-coated 96-well plates): 5.0 µg/mL |
| CCC/C=C/C(=O)CCc1ccc(O)c(OC)c1 [Compound 11] | effectively protected |  |  |  |  |  |  | Antioxidant activity (DPPH free radical scavenging), in words [3]: None of these compounds exhibited significant antioxidant activity; Anti-βA peptide(25-35) ED50 IMR32 [1, 6]: 15 µg/mL; Anti-βA peptide(1-42) ED50 PC12 [2, 6]: 12 µg/mL; Anti-βA peptide(25-35) ED50 PC12 [2, 6]: 15 µg/mL; Anti-βA peptide(1-42) ED50 HUVEC [5, 6]: 20 µg/mL; Anti-βA peptide(25-35) ED50 HUVEC [5, 6]: 20 µg/mL |
| CC1=C(/C=C/C(C)=C/C=C/C(C)=C/C=C/C=C(C)/C=C/C=C(C)/C=C/C2=C(C)CCCC2(C)C)C(C)(C)CCC1 [β-carotene, reference compound] |  |  |  |  |  |  |  | Protection of PC12 cells from βA peptide insults (control study) [2]: did not protect |
| O=c1c(O)c(-c2ccc(O)c(O)c2)oc2cc(O)cc(O)c12 [Quercetin, reference compound] | do not possess biological activity | >20 µg/mL | >20 µg/mL | >20 µg/mL | >20 µg/mL | >20 µg/mL | >20 µg/mL |  |
| Ginkgolide C [reference compound] | do not possess biological activity | toxic | toxic | toxic | toxic | toxic | toxic |  |
| CCCCCCCCCCC(=O)CCc1ccc(O)c(OC)c1 [Compound 45, [9]-dihydroshogaol] | effectively protected |  |  |  |  |  |  |  |
| O=C(C=C(O)C=Cc1ccccc1)CCc1ccc(O)cc1 [Compound 8] | cytotoxic |  |  |  |  |  |  | Antioxidant IC50 ([3]; Table 2, synthesized curcuminoids, DPPH): >200 µg/mL; Anti-βA peptide(1-42) ED50 IMR32 [1, 7]: toxic; Anti-βA peptide(25-35) ED50 IMR32 [1, 7]: toxic; Anti-βA peptide(1-42) ED50 PC12 [2, 7]: toxic; Anti-βA peptide(25-35) ED50 PC12 [2, 7]: toxic |
| CCCCCC/C=C\CCCCCCCc1cccc(O)c1C(=O)O [Compound 15] | protect | 2.5 µg/mL | 3.5 µg/mL | 2.0 µg/mL | 3.0 µg/mL | 1.5 µg/mL | 5.0 µg/mL | Antioxidant activity (DPPH free radical scavenging), in words [3]: do not possess antioxidant properties |
| CC1C(=O)OC2C(O)C34C5CC(C(C)(C)C)C36C(OC(=O)C6O)OC4(C(=O)O5)C12O (stereo not drawn) [Ginkgolide B, reference compound] | do not possess biological activity | toxic | toxic | toxic | toxic | toxic | toxic |  |
| C[C@@H]1C(=O)O[C@H]2C[C@@]34[C@H]5C[C@@H](C(C)(C)C)[C@]36[C@@H](OC(=O)[C@@H]6O)O[C@@]4(C(=O)O5)[C@]21O [Ginkgolide A, reference compound] | do not possess biological activity | toxic | toxic | toxic | toxic | toxic | toxic |  |
| Cc1c(C)c2c(c(C)c1O)CCC(C)(CCCC(C)CCCC(C)CCCC(C)C)O2 (stereo not drawn) [vitamin E, reference compound] |  |  |  |  |  |  |  | Protection of PC12 cells from βA peptide insults (control study) [2]: did not protect |
